Experimental data reported in ChEMBL document CHEMBL5291721, “A preclinical secondary pharmacology resource illuminates target-adverse drug reaction associations of marketed drugs” (Nat Commun, 2023).

What was measured:
Vasopressin V1a receptor = Vasopressin V1a receptor (Homo sapiens, UniProt P37288)
[1] = target: T1, Cholecystokinin receptor type A (Homo sapiens, UniProt P32238)
T1 sequence (P32238 whole entry): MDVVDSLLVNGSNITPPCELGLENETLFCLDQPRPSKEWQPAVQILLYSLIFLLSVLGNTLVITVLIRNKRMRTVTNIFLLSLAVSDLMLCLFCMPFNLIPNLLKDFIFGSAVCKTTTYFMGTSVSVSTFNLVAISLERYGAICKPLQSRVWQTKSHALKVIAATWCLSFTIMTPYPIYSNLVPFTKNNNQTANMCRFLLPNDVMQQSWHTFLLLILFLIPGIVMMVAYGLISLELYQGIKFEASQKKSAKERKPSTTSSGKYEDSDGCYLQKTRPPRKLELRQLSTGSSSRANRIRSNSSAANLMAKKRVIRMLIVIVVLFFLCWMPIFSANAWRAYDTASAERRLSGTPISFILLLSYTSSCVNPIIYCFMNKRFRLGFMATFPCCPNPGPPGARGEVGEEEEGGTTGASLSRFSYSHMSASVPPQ

[2] = target: 3',5'-cyclic-AMP phosphodiesterase 4D (Homo sapiens, UniProt Q08499); assay type: functional
Sequence of 3',5'-cyclic-AMP phosphodiesterase 4D (Q08499 whole entry): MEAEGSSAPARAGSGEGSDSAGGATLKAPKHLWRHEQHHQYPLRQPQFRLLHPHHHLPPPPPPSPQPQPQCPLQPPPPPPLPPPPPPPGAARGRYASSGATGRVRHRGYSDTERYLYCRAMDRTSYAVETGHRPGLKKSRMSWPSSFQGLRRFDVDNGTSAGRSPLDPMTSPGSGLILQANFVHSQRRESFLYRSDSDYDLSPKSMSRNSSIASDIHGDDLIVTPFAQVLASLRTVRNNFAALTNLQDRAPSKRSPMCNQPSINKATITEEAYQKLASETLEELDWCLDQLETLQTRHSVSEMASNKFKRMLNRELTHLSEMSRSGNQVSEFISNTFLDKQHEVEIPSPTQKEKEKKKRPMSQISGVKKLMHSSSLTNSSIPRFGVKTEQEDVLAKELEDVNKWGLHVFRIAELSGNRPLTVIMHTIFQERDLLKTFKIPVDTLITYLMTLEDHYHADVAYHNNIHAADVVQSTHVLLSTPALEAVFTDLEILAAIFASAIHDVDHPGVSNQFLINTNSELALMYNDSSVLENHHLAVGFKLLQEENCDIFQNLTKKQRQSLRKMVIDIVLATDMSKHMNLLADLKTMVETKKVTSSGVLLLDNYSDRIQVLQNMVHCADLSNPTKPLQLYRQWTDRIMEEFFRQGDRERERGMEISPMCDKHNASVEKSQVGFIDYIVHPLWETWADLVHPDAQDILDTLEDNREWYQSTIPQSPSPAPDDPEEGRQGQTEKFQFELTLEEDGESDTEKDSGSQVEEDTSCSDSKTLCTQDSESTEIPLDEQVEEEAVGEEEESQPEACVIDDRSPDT

[3] = target: 5-hydroxytryptamine receptor 2A (Homo sapiens, UniProt P28223); assay type: functional, cell-based
Sequence of 5-hydroxytryptamine receptor 2A (P28223 whole entry): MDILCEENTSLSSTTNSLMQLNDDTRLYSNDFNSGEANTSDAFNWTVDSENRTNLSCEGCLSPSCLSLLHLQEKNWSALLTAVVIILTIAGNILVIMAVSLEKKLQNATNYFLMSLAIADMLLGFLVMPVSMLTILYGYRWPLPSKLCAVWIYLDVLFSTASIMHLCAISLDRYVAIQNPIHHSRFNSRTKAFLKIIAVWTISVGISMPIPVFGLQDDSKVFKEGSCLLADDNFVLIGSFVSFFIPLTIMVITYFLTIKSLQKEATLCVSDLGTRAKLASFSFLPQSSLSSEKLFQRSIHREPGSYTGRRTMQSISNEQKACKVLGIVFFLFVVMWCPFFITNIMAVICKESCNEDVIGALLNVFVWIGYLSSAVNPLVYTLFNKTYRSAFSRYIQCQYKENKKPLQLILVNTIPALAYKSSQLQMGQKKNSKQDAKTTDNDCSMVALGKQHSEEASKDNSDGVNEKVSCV

[4] = target: Sodium-dependent dopamine transporter (Homo sapiens, UniProt Q01959)
Sequence of Sodium-dependent dopamine transporter (Q01959 whole entry): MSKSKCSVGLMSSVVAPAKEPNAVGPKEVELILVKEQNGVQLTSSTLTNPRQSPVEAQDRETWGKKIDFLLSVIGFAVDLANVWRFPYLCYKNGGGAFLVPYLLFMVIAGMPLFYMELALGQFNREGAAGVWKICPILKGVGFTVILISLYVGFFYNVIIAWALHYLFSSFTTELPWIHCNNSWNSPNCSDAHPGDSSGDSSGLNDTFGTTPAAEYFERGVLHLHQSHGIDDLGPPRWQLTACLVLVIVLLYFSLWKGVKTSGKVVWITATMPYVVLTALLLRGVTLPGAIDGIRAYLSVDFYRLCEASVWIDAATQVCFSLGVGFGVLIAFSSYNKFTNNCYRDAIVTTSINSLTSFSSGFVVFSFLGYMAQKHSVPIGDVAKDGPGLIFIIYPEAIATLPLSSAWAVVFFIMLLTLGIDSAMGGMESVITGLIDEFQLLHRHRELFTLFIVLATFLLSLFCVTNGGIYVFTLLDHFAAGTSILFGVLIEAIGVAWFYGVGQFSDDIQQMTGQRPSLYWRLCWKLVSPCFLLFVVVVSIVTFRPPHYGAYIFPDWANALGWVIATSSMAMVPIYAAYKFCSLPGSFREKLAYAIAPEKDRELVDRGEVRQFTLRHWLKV

[5] = target: T2, Alpha-2A adrenergic receptor (Homo sapiens, UniProt P08913); assay type: functional, cell-based
T2 sequence (P08913 whole entry): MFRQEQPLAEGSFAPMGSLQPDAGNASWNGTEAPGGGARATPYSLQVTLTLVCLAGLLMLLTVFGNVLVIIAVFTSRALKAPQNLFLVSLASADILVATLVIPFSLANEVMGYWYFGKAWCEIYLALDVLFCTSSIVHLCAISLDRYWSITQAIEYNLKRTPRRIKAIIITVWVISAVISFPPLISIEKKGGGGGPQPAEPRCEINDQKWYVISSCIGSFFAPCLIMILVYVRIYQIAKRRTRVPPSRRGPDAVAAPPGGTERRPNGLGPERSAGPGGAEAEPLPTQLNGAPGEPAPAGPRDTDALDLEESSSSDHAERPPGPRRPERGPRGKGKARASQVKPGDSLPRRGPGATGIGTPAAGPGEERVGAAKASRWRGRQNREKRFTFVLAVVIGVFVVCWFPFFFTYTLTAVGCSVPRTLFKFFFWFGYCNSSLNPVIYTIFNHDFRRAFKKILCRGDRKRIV

Melanocortin receptor 3 = Melanocortin receptor 3 (Homo sapiens, UniProt P41968)
Sequence of Melanocortin receptor 3 (P41968 whole entry): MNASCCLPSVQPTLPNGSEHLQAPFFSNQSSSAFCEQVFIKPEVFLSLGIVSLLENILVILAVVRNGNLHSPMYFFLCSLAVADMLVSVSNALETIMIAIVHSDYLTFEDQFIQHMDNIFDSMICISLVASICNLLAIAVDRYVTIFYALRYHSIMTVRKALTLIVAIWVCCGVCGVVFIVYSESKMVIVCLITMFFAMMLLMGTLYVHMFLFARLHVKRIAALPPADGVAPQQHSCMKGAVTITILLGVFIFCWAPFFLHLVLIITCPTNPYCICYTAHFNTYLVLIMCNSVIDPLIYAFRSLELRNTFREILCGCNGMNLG

[6] = target: Glutamate receptor ionotropic, NMDA 1 (Rattus norvegicus, UniProt P35439)
[7] = target: Beta-1 adrenergic receptor (Homo sapiens, UniProt P08588); assay type: functional
Sequence of Beta-1 adrenergic receptor (P08588 whole entry): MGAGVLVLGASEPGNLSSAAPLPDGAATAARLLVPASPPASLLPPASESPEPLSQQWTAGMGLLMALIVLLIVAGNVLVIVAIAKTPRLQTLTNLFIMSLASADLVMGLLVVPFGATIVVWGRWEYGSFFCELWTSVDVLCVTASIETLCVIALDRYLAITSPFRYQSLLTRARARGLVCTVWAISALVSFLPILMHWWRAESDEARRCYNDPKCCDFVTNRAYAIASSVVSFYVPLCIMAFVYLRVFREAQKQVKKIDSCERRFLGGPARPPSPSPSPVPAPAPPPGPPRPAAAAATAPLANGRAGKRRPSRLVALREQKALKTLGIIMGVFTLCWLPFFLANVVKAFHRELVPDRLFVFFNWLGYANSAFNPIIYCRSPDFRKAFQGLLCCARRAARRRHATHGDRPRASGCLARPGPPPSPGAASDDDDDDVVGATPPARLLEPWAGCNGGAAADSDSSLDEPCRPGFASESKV

[8] = target: T3, Amine oxidase [flavin-containing] A (Homo sapiens, UniProt P21397); assay type: functional
T3 sequence (P21397 whole entry): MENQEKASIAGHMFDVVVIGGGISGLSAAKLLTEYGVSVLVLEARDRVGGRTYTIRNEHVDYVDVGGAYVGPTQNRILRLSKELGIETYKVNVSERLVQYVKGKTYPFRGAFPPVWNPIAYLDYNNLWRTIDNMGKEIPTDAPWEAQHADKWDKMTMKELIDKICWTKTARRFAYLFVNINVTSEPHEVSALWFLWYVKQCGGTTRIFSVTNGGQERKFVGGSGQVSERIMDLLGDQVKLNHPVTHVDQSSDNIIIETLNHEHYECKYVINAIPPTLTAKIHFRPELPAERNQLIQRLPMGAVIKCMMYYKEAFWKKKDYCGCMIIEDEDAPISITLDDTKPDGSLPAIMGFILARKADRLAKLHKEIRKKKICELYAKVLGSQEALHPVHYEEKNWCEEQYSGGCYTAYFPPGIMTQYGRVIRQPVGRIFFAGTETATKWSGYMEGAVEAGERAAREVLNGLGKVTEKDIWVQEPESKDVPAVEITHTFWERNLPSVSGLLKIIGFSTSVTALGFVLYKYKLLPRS

[9] = target: Beta-2 adrenergic receptor (Homo sapiens, UniProt P07550); assay type: functional, cell-based
Sequence of Beta-2 adrenergic receptor (P07550 whole entry): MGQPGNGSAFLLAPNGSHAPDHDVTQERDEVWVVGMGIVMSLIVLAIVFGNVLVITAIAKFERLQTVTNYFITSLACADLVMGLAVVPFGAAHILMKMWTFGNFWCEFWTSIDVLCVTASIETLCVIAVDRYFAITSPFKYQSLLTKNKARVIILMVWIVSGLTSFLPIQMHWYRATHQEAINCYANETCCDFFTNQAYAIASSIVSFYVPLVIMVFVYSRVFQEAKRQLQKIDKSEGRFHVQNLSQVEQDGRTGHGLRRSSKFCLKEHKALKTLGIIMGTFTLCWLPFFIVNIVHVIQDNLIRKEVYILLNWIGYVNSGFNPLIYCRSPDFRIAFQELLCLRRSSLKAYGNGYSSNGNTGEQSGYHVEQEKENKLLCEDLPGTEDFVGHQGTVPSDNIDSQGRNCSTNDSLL

Progesterone receptor = target: T4, Progesterone receptor (Homo sapiens, UniProt P06401)
T4 sequence (P06401 whole entry): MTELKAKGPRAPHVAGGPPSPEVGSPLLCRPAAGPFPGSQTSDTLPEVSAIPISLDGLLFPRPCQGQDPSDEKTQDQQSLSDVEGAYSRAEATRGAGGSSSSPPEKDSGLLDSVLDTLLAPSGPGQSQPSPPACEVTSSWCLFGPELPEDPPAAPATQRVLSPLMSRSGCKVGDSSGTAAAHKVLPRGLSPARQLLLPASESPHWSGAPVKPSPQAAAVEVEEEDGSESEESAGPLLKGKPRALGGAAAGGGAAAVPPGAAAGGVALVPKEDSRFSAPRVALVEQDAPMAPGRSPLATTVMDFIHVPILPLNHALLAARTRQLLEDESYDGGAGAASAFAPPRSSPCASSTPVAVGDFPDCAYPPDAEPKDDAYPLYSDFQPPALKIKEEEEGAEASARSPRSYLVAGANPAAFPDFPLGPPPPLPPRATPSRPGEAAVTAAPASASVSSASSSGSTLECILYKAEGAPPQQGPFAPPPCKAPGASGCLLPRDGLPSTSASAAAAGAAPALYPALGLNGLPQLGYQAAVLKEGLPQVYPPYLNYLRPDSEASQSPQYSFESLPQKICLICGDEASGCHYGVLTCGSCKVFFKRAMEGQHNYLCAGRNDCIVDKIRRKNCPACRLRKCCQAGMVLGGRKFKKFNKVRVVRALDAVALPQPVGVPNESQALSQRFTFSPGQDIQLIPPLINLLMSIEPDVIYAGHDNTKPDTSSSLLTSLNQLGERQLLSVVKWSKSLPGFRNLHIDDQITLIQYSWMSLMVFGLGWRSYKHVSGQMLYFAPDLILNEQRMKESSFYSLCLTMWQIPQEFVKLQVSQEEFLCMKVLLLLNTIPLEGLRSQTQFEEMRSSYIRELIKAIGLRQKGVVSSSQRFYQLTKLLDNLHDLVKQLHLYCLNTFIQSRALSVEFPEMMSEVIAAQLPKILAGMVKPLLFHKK

D(1A) dopamine receptor = D(1A) dopamine receptor (Homo sapiens, UniProt P21728)
Sequence of D(1A) dopamine receptor (P21728 whole entry): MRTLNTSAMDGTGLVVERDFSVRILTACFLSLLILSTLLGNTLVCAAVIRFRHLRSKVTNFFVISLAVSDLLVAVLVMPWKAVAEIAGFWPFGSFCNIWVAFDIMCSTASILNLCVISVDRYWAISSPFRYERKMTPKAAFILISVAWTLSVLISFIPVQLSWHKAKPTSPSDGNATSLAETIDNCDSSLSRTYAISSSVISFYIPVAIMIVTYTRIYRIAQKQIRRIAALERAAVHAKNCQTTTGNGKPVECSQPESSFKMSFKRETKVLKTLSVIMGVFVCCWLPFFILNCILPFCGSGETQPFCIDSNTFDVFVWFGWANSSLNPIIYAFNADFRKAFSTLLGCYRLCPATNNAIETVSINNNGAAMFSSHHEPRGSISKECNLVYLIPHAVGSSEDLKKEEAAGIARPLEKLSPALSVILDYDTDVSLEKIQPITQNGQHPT
Further: assay procedure not described here.

Sequence of Vasopressin V1a receptor (P37288 whole entry): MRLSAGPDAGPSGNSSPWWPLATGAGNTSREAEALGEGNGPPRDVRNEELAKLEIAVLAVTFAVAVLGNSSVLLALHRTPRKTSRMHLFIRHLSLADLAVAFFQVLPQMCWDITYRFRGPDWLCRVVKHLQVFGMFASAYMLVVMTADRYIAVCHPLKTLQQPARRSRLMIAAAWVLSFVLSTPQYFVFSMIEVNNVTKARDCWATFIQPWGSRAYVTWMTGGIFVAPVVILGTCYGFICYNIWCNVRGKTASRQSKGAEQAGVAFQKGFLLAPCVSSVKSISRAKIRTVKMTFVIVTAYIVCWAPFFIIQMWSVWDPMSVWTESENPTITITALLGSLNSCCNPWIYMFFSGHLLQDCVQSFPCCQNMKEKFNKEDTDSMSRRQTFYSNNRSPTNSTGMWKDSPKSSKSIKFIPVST

Structure (SMILES)	AC50 (Vasopressin V1a receptor)	AC50 [1]	AC50 [2]	AC50 [3]	AC50 [4]	AC50 [5]	AC50 (Melanocortin receptor 3)	AC50 [6]	AC50 [7]	AC50 [8]	AC50 [9]	AC50 (Progesterone receptor)	AC50 (D(1A) dopamine receptor)
C[C@H](Nc1ncnc2[nH]cnc12)c1cc2cccc(Cl)c2c(=O)n1-c1ccccc1 [DUVELISIB]	> 30 µM	> 30 µM	> 30 µM	18 µM	> 30 µM	> 30 µM	> 30 µM		> 30 µM	> 30 µM	> 30 µM	> 30 µM	> 30 µM
CCOC(=O)Nc1ccc(NCc2ccc(F)cc2)nc1N [FLUPIRTINE]	> 30 µM	> 30 µM	> 30 µM	> 10 µM	> 30 µM	> 30 µM	> 30 µM	> 30 µM	> 30 µM	> 30 µM	> 30 µM		
CC(C)/N=c1\cc2n(-c3ccc(Cl)cc3)c3ccccc3nc-2cc1Nc1ccc(Cl)cc1 [CLOFAZIMINE]	> 30 µM	> 30 µM	17.5 µM	> 30 µM	> 30 µM	> 30 µM	> 30 µM	22 µM	> 30 µM	> 30 µM	> 30 µM		
O=C(Cc1cccs1)N[C@@H]1C(=O)N2C(C(=O)[O-])=C(C[n+]3ccccc3)CS[C@H]12 [CEPHALORIDINE]			> 30 µM	> 30 µM		> 30 µM		> 30 µM		> 30 µM	> 30 µM	> 30 µM	> 30 µM
C#CCN(C)Cc1ccccc1 [PARGYLINE]			> 30 µM	> 30 µM		> 30 µM		> 30 µM			> 30 µM	> 30 µM	> 30 µM
OCCOCCN1CCN(C(c2ccccc2)c2ccc(Cl)cc2)CC1 (centres undefined) [HYDROXYZINE]	> 10 µM	> 30 µM	> 30 µM	6 µM	> 10 µM	> 10 µM	> 30 µM	> 10 µM	> 10 µM	> 10 µM	> 30 µM		

Further lines, with some results ahead:

AC50 (Vasopressin V1a receptor)	AC50 [1]	AC50 [2]	AC50 [3]	AC50 [4]	AC50 [5]	AC50 (Melanocortin receptor 3)	AC50 [6]	AC50 [7]	AC50 [8]	AC50 [9]	Structure (SMILES)	AC50 (Progesterone receptor)	AC50 (D(1A) dopamine receptor)
> 30 µM	> 30 µM	1.8 µM	> 30 µM	> 30 µM	> 30 µM	> 30 µM	> 30 µM	> 30 µM	> 30 µM	> 30 µM	N[C@@H](Cc1cc(I)c(Oc2cc(I)c(O)c(I)c2)c(I)c1)C(=O)O [LEVOTHYROXINE]		
> 30 µM	> 30 µM	> 30 µM	> 30 µM	> 30 µM	> 30 µM	> 30 µM	> 30 µM	> 30 µM	> 30 µM	> 30 µM	CN(C)CCc1c[nH]c2ccc(CS(=O)(=O)N3CCCC3)cc12 [ALMOTRIPTAN]		
> 30 µM	> 30 µM	> 30 µM	> 30 µM	> 30 µM	> 10 µM	> 30 µM	> 10 µM	> 30 µM	> 10 µM	> 30 µM	C=CC1=C(C(=O)O)N2C(=O)[C@@H](NC(=O)/C(=N\O)c3csc(N)n3)[C@H]2SC1		
> 30 µM	> 30 µM	> 30 µM	> 30 µM	> 30 µM	> 10 µM	> 30 µM	> 10 µM	> 10 µM	> 10 µM	> 30 µM	C[C@]12CCC(=O)C=C1CC[C@H]1[C@@H]3CC[C@](O)(C(=O)CO)[C@@]3(C)C[C@H](O)[C@@]12F [FLUDROCORTISONE]		
